Experimental data published in US4229204A, “Trifluoromethylphenyl isoxazolyl benzoates” (Monsanto Company, priority 1978, dated 1980).

Assays:
Type in all cases: in vivo
Soybean = assay: Post-emergent herbicidal test; note: ranges in brackets are in %
Description: (§1) The post-emergent tests were conducted as follows:
(§2) The active ingredients are applied in spray form to two or three week old specimens of various plant species. The spray, a solution or wettable powder suspension containing the appropriate rate of active ingredient to give the desired test rate and a surfactant, is applied to the plants.

Hemp Sesbania = assay: Post-emergent herbicidal test; note: ranges in brackets are in %
Description: as §1, §2

Rice = assay: Post-emergent herbicidal test; note: ranges in brackets are in %
Description: as §1, §2

Wild Buckwheat = assay: Post-emergent herbicidal test; note: ranges in brackets are in %
Description: as §1, §2

Sorghum = assay: Post-emergent herbicidal test; note: ranges in brackets are in %
Description: as §1, §2

Crabgrass = assay: Post-emergent herbicidal test; note: ranges in brackets are in %
Description: as §1, §2

Sugarbeet = assay: Post-emergent herbicidal test; note: ranges in brackets are in %
Description: as §1, §2

Wheat = assay: Post-emergent herbicidal test; note: ranges in brackets are in %
Description: as §1, §2

Panicum Spp. = assay: Post-emergent herbicidal test; note: ranges in brackets are in %
Description: as §1, §2

Williams soybeans = assay: Soybean seed yield test (Table V)
Description: Additionally, the compound of Example Number 3 was tested as follows.
Williams soybeans were planted on 5.5 inch row spacings. The soybeans were treated at three different stages of early growth (first, second or third trifoliate opening) with a formulation of the compound of Example Number 3 containing 0.25% Tween 20 as a surfactant.

Johnsongrass = assay: Pre-emergent herbicidal test; conditions: 2 WAT, 11.2 kg/h; note: ranges in brackets are in %
Outline: (§3)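 Percent injury per species, scored on a fixed rating scale, was recorded after pre-emergent treatment. Planted seeds or propagules sat beneath a cover layer of soil mixed with a known amount of test compound.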

Downy Brome = assay: Pre-emergent herbicidal test; note: ranges in brackets are in %
Outline: as §3

Lambsquarters = assay: Pre-emergent herbicidal test; note: ranges in brackets are in %
Outline: as §3

Smartweed = assay: Pre-emergent herbicidal test; note: ranges in brackets are in %
Outline: as §3

harber barley = assay: Growth regulation of barley (Table X)
Description: Table X, below, summarizes observations made when the compound of Example Number 3 was applied to harber barley.

Question: `COC(=O)c1ccccc1-c1cc(-c2cccc(C(F)(F)F)c2)no1` [Example 3, Methyl 2-[3-[3-(Trifluoromethyl)-Phenyl]-5-Isoxazolyl]Benzoate] was tested. Which herbicidal rating (Soybean; 2 WAT, 1.12 kg/h) did it give?
Answer: 1 (25-49)

Question: What about the herbicidal rating (Soybean; 4 WAT, 5.60 kg/h) of the same compound?
Answer: 1 (25-49)

Question: What about the herbicidal rating (Hemp Sesbania; 2 WAT, 1.12 kg/h) of the same compound?
Answer: 1 (25-49)

Question: What about the herbicidal rating (Hemp Sesbania; 4 WAT, 5.60 kg/h) of the same compound?
Answer: 0 (0-24)

Question: And the herbicidal rating (Rice; 2 WAT, 1.12 kg/h)?
Answer: 0 (0-24)

Question: What about the herbicidal rating (Rice; 4 WAT, 5.60 kg/h) of the same compound?
Answer: 0 (0-24)

Question: What about the herbicidal rating (Wild Buckwheat; 2 WAT, 1.12 kg/h) of the same compound?
Answer: 1 (25-49)

Question: And the herbicidal rating (Wild Buckwheat; 4 WAT, 5.60 kg/h)?
Answer: 1 (25-49)

Question: And the herbicidal rating (Sorghum; 2 WAT, 1.12 kg/h)?
Answer: 0 (0-24)

Question: What about the herbicidal rating (Sorghum; 4 WAT, 5.60 kg/h) of the same compound?
Answer: 0 (0-24)

Question: What about the herbicidal rating (Crabgrass; 2 WAT, 1.12 kg/h) of the same compound?
Answer: 0 (0-24)

Question: What about the herbicidal rating (Crabgrass; 4 WAT, 5.60 kg/h) of the same compound?
Answer: 0 (0-24)

Question: What about the herbicidal rating (Sugarbeet; 2 WAT, 1.12 kg/h) of the same compound?
Answer: 0 (0-24)

Question: And the herbicidal rating (Sugarbeet; 4 WAT, 5.60 kg/h)?
Answer: 1 (25-49)

Question: And the herbicidal rating (Wheat; 2 WAT, 1.12 kg/h)?
Answer: 1 (25-49)

Question: And the herbicidal rating (Wheat; 4 WAT, 5.60 kg/h)?
Answer: 0 (0-24)

Question: And the herbicidal rating (Panicum Spp.; 2 WAT, 1.12 kg/h)?
Answer: 0 (0-24)

Question: What about the herbicidal rating (Panicum Spp.; 4 WAT, 5.60 kg/h) of the same compound?
Answer: 0 (0-24)

Question: And the “Seed Yield” value (Williams soybeans; 0.0062 lb/acre, stage of application 2 (untreated 63.9))?
Answer: 63.6 bu/acre

Question: What about the “Seed Yield” value (Williams soybeans; 0.0125 lb/acre, stage of application 1 (untreated 63.9)) of the same compound?
Answer: 67.4 bu/acre

Question: And the “Seed Yield” value (Williams soybeans; 0.0125 lb/acre, stage of application 2 (untreated 63.9))?
Answer: 68.2 bu/acre

Question: And the “Seed Yield” value (Williams soybeans; 0.0125 lb/acre, stage of application 3 (untreated 63.9))?
Answer: 65.7 bu/acre

Question: What about the “Seed Yield” value (Williams soybeans; 0.0250 lb/acre, stage of application 1 (untreated 63.9)) of the same compound?
Answer: 62.5 bu/acre

Question: What about the “Seed Yield” value (Williams soybeans; 0.0250 lb/acre, stage of application 2 (untreated 63.9)) of the same compound?
Answer: 64.7 bu/acre

Question: What about the “Seed Yield” value (Williams soybeans; 0.0250 lb/acre, stage of application 3 (untreated 63.9)) of the same compound?
Answer: 69.9 bu/acre

Question: What about the “Seed Yield” value (Williams soybeans; 0.0375 lb/acre, stage of application 1 (untreated 63.9)) of the same compound?
Answer: 59.6 bu/acre

Question: And the “Seed Yield” value (Williams soybeans; 0.0375 lb/acre, stage of application 2 (untreated 63.9))?
Answer: 57.5 bu/acre

Question: What about the “Seed Yield” value (Williams soybeans; 0.0375 lb/acre, stage of application 3 (untreated 63.9)) of the same compound?
Answer: 70.3 bu/acre

Question: And the “Seed Yield” value (Williams soybeans; 0.0500 lb/acre, stage of application 2 (untreated 63.9))?
Answer: 71.3 bu/acre

Question: And the herbicidal rating (Johnsongrass)?
Answer: 2 (50-74)

Question: And the herbicidal rating (Downy Brome; 2 WAT, 11.2 kg/h)?
Answer: 2 (50-74)

Question: What about the herbicidal rating (Downy Brome; 4 WAT, 1.12 kg/h) of the same compound?
Answer: 1 (25-49)

Question: What about the herbicidal rating (Downy Brome; 4 WAT, 5.60 kg/h) of the same compound?
Answer: 2 (50-74)

Question: And the herbicidal rating (Lambsquarters; 2 WAT, 11.2 kg/h)?
Answer: 3 (75-100)

Question: And the herbicidal rating (Lambsquarters; 4 WAT, 1.12 kg/h)?
Answer: 1 (25-49)

Question: What about the herbicidal rating (Lambsquarters; 4 WAT, 5.60 kg/h) of the same compound?
Answer: 2 (50-74)

Question: And the herbicidal rating (Smartweed; 2 WAT, 11.2 kg/h)?
Answer: 3 (75-100)

Question: And the herbicidal rating (Smartweed; 4 WAT, 1.12 kg/h)?
Answer: 3 (75-100)

Question: And the herbicidal rating (Smartweed; 4 WAT, 5.60 kg/h)?
Answer: 3 (75-100)

Question: And the “Plant Height” value (harber barley; time of treatment 16 days, 250 ppm, 3 weeks after treatment)?
Answer: 90 % of Control

Question: What about the “Plant Height” value (harber barley; time of treatment 16 days, 250 ppm, 6 weeks after treatment) of the same compound?
Answer: 97 % of Control

Question: What about the “Plant Height” value (harber barley; time of treatment 42 days, 10 ppm, 3 weeks after treatment) of the same compound?
Answer: 93 % of Control

Question: What about the “Plant Height” value (harber barley; time of treatment 42 days, 50 ppm, 3 weeks after treatment) of the same compound?
Answer: 106 % of Control

Question: And the “Plant Height” value (harber barley; time of treatment 42 days, 250 ppm, 3 weeks after treatment)?
Answer: 90 % of Control
